In paper PMC8200237, “New Oxaliplatin-Pyrophosphato Analogs with Improved In Vitro Cytotoxicity” (Molecules, 2021):
Where two headings read alike, the source gives them in different places.

Columns and labels:
[1] = system: HCT116 human colon cancer cells; experiment: MTT cell viability assay, HCT116; assay type: cell-based; conditions: MTT test, 72 h; read-out: IC50 (µM) ± S.D. HCT116
Procedure: (§1) The in vitro cytotoxicity of the Pt-pyrophosphato complexes (1, 2, 3, and 4) was evaluated on a panel of human cancer cell lines and compared to that of cisplatin and oxaliplatin. Cell lines representative of colon (HCT-116), prostate (PC3), breast (MDA-MB231), and […] (OV2008) carcinomas were included.
(§2) The number of living cells was evaluated by the 3-(4,5-dimethylthiazol-2-yl)-2,5-diphenyltetrazolium bromide (MTT) assay. Briefly, HCT116 human colon cancer cells, PC3 human prostate cancer cells, OV2008 human ovarian cancer cells, and MDA MB 231 human breast cancer cells were plated in 96-well plates at a density of ~5000 cells/well. After one day of incubation at 37 °C in a humid atmosphere with 5% CO2, the culture medium was replaced with 100 µL of fresh medium (control cells) or medium containing different concentrations of the test compounds in the range 1.56–100 µM. Untreated cells were used as positive controls. After the incubation period of 72 h, 10 µL of a 0.5% (w/v) MTT/PBS solution was added to each well and the incubation was prolonged for a further 2 h. After this period, the medium was removed and replaced with 100 µL of DMSO. The absorbance of each well was measured by a microplate reader (Wallac Victor3, 1420 Multilabel Counter, Perkin-Elmer, Singapore). Each compound concentration was tested in triplicate, and results were presented as percentage of the control value. IC50 values were calculated using non-linear regression in GraphPad Prism 5.01 (San Diego, CA, USA). […]
(§3) Table S1. In vitro cytotoxicitya […]
(§4) aCells (3–5·10^3 cells […]) were treated for 72 h with increasing concentrations of the tested compounds. Cytotoxicity was assessed by the MTT test. IC50 values were calculated by the four parameter logistic model (p < 0.05). S.D. = standard deviation. OXP = oxaliplatin, CDDP = cisplatin.

[2] = system: MDA MB 231 human breast cancer cells; experiment: MTT cell viability assay, MDA MB 231; assay type: cell-based; conditions: MTT test, 72 h; read-out: IC50 (µM) ± S.D. MDAMB231
Procedure: as §1, §2, §3, §4

[3] = system: panel of four human cancer cell lines; experiment: MTT cytotoxicity, average over the four cell lines; assay type: cell-based; conditions: average over HCT116, PC3, OV2008, MDAMB231; MTT test, 72 h; read-out: IC50 (µM) ± S.D. Average
Procedure: as §1
From this point of view, oxaliplatin represents a better reference compound, with the bidentate oxalato ligand being more similar to the bidentate pyrophosphato ligand.
as §2, §3, §4

[4] = Stability in physiological conditions by 31P NMR (pH 7.4); assay type: physicochemical; conditions: D2O, HEPES buffer 50 mM, pH 7.4, 120 mM NaCl, 37 °C
Procedure: To investigate the stability of 1 and 2 in physiological-like conditions, their solutions in D2O containing HEPES buffer (50 mM, pH = 7.4) and NaCl (120 mM) were monitored at 37 °C by ^31P NMR spectroscopy. […] However, overall, also compound 2 can be considered stable for the time necessary to perform the in vitro cytotoxicity tests (72 h, see following section).
(§5) The stability of compounds 1 and 2 at 37 °C in buffered solutions was assessed by ^31P NMR spectroscopy. Each compound (~2 mg) was dissolved in 0.8 mL of D2O containing 50 mM 4-(2-hydroxyethyl)-1-piperazineethanesulfonic acid) (HEPES) buffer (pH* = 7.4 or pH* = 6.5) and 120 mM NaCl. The resulting solutions were transferred into NMR tubes and maintained at 37 °C. ^31P NMR spectra were recorded from time to time over a period of one month.

[5] = 31P NMR chemical shift/pH titration, acidity constants; assay type: physicochemical; conditions: D2O, 31P NMR titration; for pKa1 (first inflection point, pH*): first deprotonation step; for pKa2 (second inflection point, pH*): second deprotonation of coordinated pyrophosphate
Procedure: The pH titration of complexes 1 and 2 was carried on by recording ^31P NMR spectra at different pH* values (Figure 5).
Acidity constants for complexes 1 and 2 were determined by ^31P NMR chemical shift/pH titrations. Either compound 1 or 2 (0.0047 mmol) was dissolved in 0.550 mL of D2O and transferred into an NMR tube. The pH* of the sample was adjusted to the required value by addition of DClO4 (10, 1.0, 0.5, 0.1, or 0.05 M) or NaOD (1.0, 0.5, 0.1, or 0.05 M) solutions, and the pH* value was measured by using a 3 mm diameter electrode for NMR tubes. No control of the ionic strength was performed. The pH titration curves were fitted to the Henderson−Hasselbalch equation using the program KaleidaGraph (version 3.5, Synergy Software, Reading, PA, USA).

[6] = system: PC3 human prostate cancer cells; experiment: MTT cell viability assay, PC3; assay type: cell-based; conditions: MTT test, 72 h; read-out: IC50 (µM) ± S.D. PC3
Procedure: as §1, §2, §3, §4

[7] = Stability in acidic environment by 31P NMR (pH* 6.5); assay type: physicochemical; conditions: D2O, HEPES buffer 50 mM, pH* 6.5, 120 mM NaCl, 37 °C
Procedure: To simulate the acidic environment surrounding cancer tissues, the stability of 1 and 2 was also investigated at pH* = 6.5 and 37 °C by ^31P NMR spectroscopy.
as §5

[8] = system: OV2008 human cervical cancer cells; experiment: MTT cell viability assay, OV2008; assay type: cell-based; conditions: MTT test, 72 h; read-out: IC50 (µM) ± S.D. OV2008
Procedure: as §1, §2, §3, §4

HCT116 cells = experiment: Annexin V/PI apoptosis assay by flow cytometry; assay type: cell-based, human
Procedure: In order to obtain information on tumor cells’ death, the Annexin V/propidium iodide (PI) assay was used in flow cytometry analyses. Annexin V provides a very sensitive method for detecting cellular apoptosis, while PI is commonly used to detect necrotic or late apoptotic cells (when positive to Annexin too). The FITC Annexin V staining was carried out after 24 and 48 h of incubation of HCT116 cells with the Pt-pyrophosphato complexes (1–4) or oxaliplatin/cisplatin (used as reference compounds) at the IC50 concentrations (Supplementary Materials, Table S1). The two-dimensional dot plots can be divided into four quadrants, corresponding to: (i) viable cells, which are negative to both probes (lower left quadrant; PI/FITC −/−), (ii) early apoptotic cells, which are PI-negative and Annexin V-positive (lower right quadrant; PI/FITC −/+), (iii) late apoptotic cells, which are Annexin- and PI-positive (upper right quadrant; PI/FITC +/+), and (iv) necrotic cells, which are PI-positive and Annexin-negative (upper left quadrant; PI/FITC +/−).
The Annexin V/PI assay was conducted as previously described in order to investigate the mechanism of cell death induced by the various compounds on HCT116 cells. […]

[9] = cited from earlier work
[10] = cited from earlier work; remark: listed apart in the source
[11] = free pyrophosphate, cited from earlier work

**Q.** Which IC50 [1] does the source give for `NC1CC=CCC1N.O=P1(O)[O][Pt][O]P(=O)(O)O1` (racemic) [Compound 2, [Pt(dihydrogenpyrophosphato)(1,2-DACHEX)]] here?
**A.** The IC50 was 20 ± 2 µM.

**Q.** And the IC50 [2]?
**A.** The IC50 was 39 ± 4 µM.

**Q.** What about the IC50 [3] of the same molecule?
**A.** Its IC50 is 47 ± 6 µM.

**Q.** And the “time at which a small 31P NMR signal of free pyrophosphate is first observed” value [4]?
**A.** The value was 120 h.

**Q.** What about the “pKa1 (first inflection point, pH*)” value [5] of the same molecule?
**A.** The value was 2.02.

**Q.** What about the “pKa2 (second inflection point, pH*)” value [5] of the same molecule?
**A.** The value was 4.23.

**Q.** What about the IC50 [6] of the same molecule?
**A.** The IC50 was 100 ± 6 µM.

**Q.** What about the “time at which a small 31P NMR signal of free pyrophosphate is first observed” value [7] of the same molecule?
**A.** The value was 96 h.

**Q.** And the IC50 [8]?
**A.** Its IC50 is 30 ± 3 µM.

**Q.** With `[NH2][Pt]([NH2])([Cl])[Cl]` [CDDP, cisplatin, reference compound] as the molecule, how does the IC50 [1] read?
**A.** Its IC50 is 9 ± 2 µM.

**Q.** What about the IC50 [2] of the same molecule?
**A.** Its IC50 is 2 ± 1 µM.

**Q.** What about the IC50 [3] of the same molecule?
**A.** The IC50 was 6 µM.

**Q.** And the IC50 [6]?
**A.** The IC50 was 9 ± 3 µM.

**Q.** And the IC50 [8]?
**A.** The IC50 was 4 ± 1 µM.

**Q.** Which results are given for `O=P1([O-])OP(=O)([O-])[O][Pt]2([NH]C3CCCC(C3)[NH]2)[O]1.[Na+].[Na+]` (stereo not drawn) [Compound 1, Na2[Pt(pyrophosphato)(cis-1,3-DACH)]]?
**A.** IC50 [1]: 21 ± 2 µM; IC50 [2]: 26 ± 3 µM; IC50 [3]: 23 µM; time at which a small 31P NMR signal of free pyrophosphate is first observed [4]: 672 h; pKa1 (first inflection point, pH*) [5]: 2.28; pKa2 (second inflection point, pH*) [5]: 4.55; IC50 [6]: 29 µM; time at which a small 31P NMR signal of free pyrophosphate is first observed [7]: 168 h; IC50 [8]: 15 ± 2 µM

**Q.** For `N[C@@H]1CCCC[C@H]1N.O=P([O-])(O)OP(=O)([O-])O.[Pt+2]` [Compound 3, [Pt(dihydrogenpyrophosphato)(1R,2R-DACH)], reference compound], which “% viable cells (lower left quadrant, PI-/Annexin V-)” value (HCT116 cells) is on record?
**A.** Its value is 84.912%.

**Q.** And the IC50 [1]?
**A.** The IC50 was 19 ± 4 µM.

**Q.** And the “stability in physiological conditions” value [9]?
**A.** Its value is “quite stable”.

**Q.** And the IC50 [2]?
**A.** The IC50 was 91 ± 5 µM.

**Q.** And the pKa1 [10]?
**A.** Its pKa1 is 2.06.

**Q.** And the pKa2 [10]?
**A.** The pKa2 was 4.40.

**Q.** What about the IC50 [3] of the same molecule?
**A.** The IC50 was 60 ± 8 µM.

**Q.** And the IC50 [6]?
**A.** The IC50 was 100 ± 8 µM.

**Q.** What about the IC50 [8] of the same molecule?
**A.** Its IC50 is 29 ± 5 µM.

**Q.** Which IC50 [1] does the source give for `O=P1(O)OP(=O)(O)[O][Pt]2([NH]C3CCC(CC3)[NH]2)[O]1` (stereo not drawn) [Compound 4, [Pt(dihydrogenpyrophosphato)(cis-1,4-DACH)]] here?
**A.** Its IC50 is 44 ± 3 µM.

**Q.** And the “stability in physiological conditions” value [9]?
**A.** The value was “quite stable”.

**Q.** What about the IC50 [2] of the same molecule?
**A.** Its IC50 is 100 ± 7 µM.

**Q.** And the pKa1 [10]?
**A.** The pKa1 was 2.03.

**Q.** And the pKa2 [10]?
**A.** Its pKa2 is 4.47.

**Q.** And the IC50 [3]?
**A.** The IC50 was 72 ± 7 µM.

**Q.** And the IC50 [6]?
**A.** The IC50 was 100 ± 5 µM.

**Q.** And the IC50 [8]?
**A.** The IC50 was 46 ± 5 µM.

**Q.** What does the source list for `O=C1[O][Pt]2([NH][C@@H]3CCCC[C@H]3[NH]2)[O]C1=O` [OXP, oxaliplatin]?
**A.** IC50 [1]: 72 µM; IC50 [2]: 93 ± 6 µM; IC50 [3]: 80 µM; IC50 [6]: 100 ± 5 µM; IC50 [8]: 54 ± 4 µM

**Q.** With `O=P(O)(O)OP(=O)(O)O` [Pyrophosphate] as the molecule, how does the pKa1 ([11]; tetrabasic acid) read?
**A.** Its pKa1 is 0.85.

**Q.** And the pKa2 [11]?
**A.** Its pKa2 is 1.49.

**Q.** What about the pKa3 [11] of the same molecule?
**A.** Its pKa3 is 5.77.

**Q.** And the pKa4 [11]?
**A.** Its pKa4 is 8.22.
